From patent US20070191493A1, “Use of n-alkanols as activators of the cftr channel” (priority 2003, published 2007)

Tests used:
CHO-CFTR(-) cells = assay: 125I iodide efflux in CHO-CFTR(-) control cells that do not express CFTR; assay type: cell-based, Chinese hamster; details: octan-1-ol 0.1 to 5 mM, FSK 5 μM, A23187 2 μM
CFTR channel = CFTR channel (Homo sapiens, UniProt P13569); assay: whole-cell patch-clamp in CHO-CFTR(+) cells; assay type: cell-based; design: expressed in transfected cells; host or cells: CHO (Chinese hamster ovary) cells, CHO-CFTR(+)
Source text: The patch-clamp technique consists in applying a glass pipette or a glass microelectrode to the surface of the cell. By applying slight touch, it is possible to cause the membrane to adhere to the glass. A small piece of membrane (patch) is thus isolated at the end of the pipette. This is the principle of patch-clamp (O. P. Hamill et al., Pflügers Arch., 1981, 391, 85-100; R. Penner, A Practical Guide to Patch Clamping, 1995, In Single Channel Recording, 2nd edition (Eds. B. Sakmann et al.) Plenum Press, New York, 3-30). To do this, the patch-clamp pipette must have a tip of the order of 1 μm in diameter and a resistance of the order of 1-5 MΩ. The resistance of a pipette or of a microelectrode makes it possible to assess the fineness of the tip: the greater the resistance, the finer the tip or the more the electrode is blocked. […] Interactions between the membrane and the glass will form, aided by a slight suction or negative pressure in the pipette. The quality of this interaction (or sealing) is also assessed by measuring the resistance between the glass and the membrane. To measure overall currents in the whole cell configuration, a sealing resistance of 1 GΩ is sufficient.
More specifically, culture dishes (cell support) are placed in an experimentation cell (volume 1 ml) on the platform of an inverted microscope (Nikon) equipped with phase-contrast lighting. The whole-cell configuration is used for recording the cell currents (Hamill et al., 1981). The experiments are carried out at ambient temperature (20-22° C.). The currents are amplified with an Axopatch 200B amplifier (Axon Instrument Ltd) having a 2-5 kHz low-pass filter (Bessel 6-pole filter), and recorded on the hard disk of a PC after digitization at 10-25 kHz. The pipettes are produced from glass tubes 1 mm in diameter (Clark Electromedical Instrument) in four steps with a horizontal drawing device (Bruwn Flaming 97, CA).
The pipettes, filled with an intracellular solution containing, in mM: 60 KCl; 80 NMDG ([…]); 10 HEPES; 5 EGTA; 1 CaCl2; 4 MgATP; 0.2 Na3GTP; pH 7.4, titrated with KOH), having a resistance of 5 MΩ. The potentials are expressed as the difference between the potential of the patch electrode and that of the bath. In the whole-cell configuration, they represent the membrane potential of the cell. The junction potentials that form between the recording electrode and the extracellular medium are eliminated before the contact of the electrode with the cell. […] The current-voltage relationships in the stationary state are determined using slow voltage ramps (20 mV/.s) under an imposed voltage condition. […]

intracellular cAMP level = assay: total intracellular cAMP assay in CHO-CFTR(+) cells; assay type: cell-based, Chinese hamster; details: 5 min, FSK 1 or 5 μM, alcohols 1 mM
Method: The CHO cells are cultured for four days in a 24-well culture plate. On the fourth day of culture, each well is rinsed twice with 500 μl of medium B, and 500 μl of this buffer containing the molecule to be tested are added to each well. After incubation at 37° C. for 5 min, the reaction is stopped by adding a cell lysis buffer. The cell lysis is verified with Trypan blue. The amount of cAMP contained in the cells is determined using the Enzyme Immuno Assay kit (Amersham Biotechnology). The cAMP level is expressed in pmol/well ±SD.

CHO cells = assay: ATP-induced calcium response (cellular uncoupling) in CHO cells; assay type: cell-based, Chinese hamster; details: α-GA 10 to 100 μM, octan-1-ol 1 mM
Method: The Ca^2+ measurements are carried out in the presence of fura-2 (impermeant fluorescent probe) which binds […]. The cells are incubated in serum-free DMEM/F12 culture medium in the presence of the permeant form of fura-2 (fura-2/AM, 2.5 μM) for 1 h at 37° C. The cells, placed on the platform of an epifluorescent microscope (Olympus) (20× objective), are perfused with the solutions to be tested (e.g. ATP, octanol). They are sequentially illuminated at 340 nm and 380 nm and the fluorescence emitted (F) is measured at 510 nm. It is detected via a 12-bit CCD camera (Sony) connected to a data processing computer unit (TILL Photonics). The intracellular Ca^2+ concentration [Ca^2+]i is calculated using the Grynckiewicz equation (Grynckiewicz et al., 1985): [Ca^2+]i=Kdi *(R−Rmin/Rmax−R), based on the ratiometric analysis R (340/380 nm) of the fluorescence (TILL Vision); Rmax and Rmin denote the ratio of fluorescence measured in the presence or in the absence of Ca^2+.

CFTR channel, sequence (P13569 whole entry): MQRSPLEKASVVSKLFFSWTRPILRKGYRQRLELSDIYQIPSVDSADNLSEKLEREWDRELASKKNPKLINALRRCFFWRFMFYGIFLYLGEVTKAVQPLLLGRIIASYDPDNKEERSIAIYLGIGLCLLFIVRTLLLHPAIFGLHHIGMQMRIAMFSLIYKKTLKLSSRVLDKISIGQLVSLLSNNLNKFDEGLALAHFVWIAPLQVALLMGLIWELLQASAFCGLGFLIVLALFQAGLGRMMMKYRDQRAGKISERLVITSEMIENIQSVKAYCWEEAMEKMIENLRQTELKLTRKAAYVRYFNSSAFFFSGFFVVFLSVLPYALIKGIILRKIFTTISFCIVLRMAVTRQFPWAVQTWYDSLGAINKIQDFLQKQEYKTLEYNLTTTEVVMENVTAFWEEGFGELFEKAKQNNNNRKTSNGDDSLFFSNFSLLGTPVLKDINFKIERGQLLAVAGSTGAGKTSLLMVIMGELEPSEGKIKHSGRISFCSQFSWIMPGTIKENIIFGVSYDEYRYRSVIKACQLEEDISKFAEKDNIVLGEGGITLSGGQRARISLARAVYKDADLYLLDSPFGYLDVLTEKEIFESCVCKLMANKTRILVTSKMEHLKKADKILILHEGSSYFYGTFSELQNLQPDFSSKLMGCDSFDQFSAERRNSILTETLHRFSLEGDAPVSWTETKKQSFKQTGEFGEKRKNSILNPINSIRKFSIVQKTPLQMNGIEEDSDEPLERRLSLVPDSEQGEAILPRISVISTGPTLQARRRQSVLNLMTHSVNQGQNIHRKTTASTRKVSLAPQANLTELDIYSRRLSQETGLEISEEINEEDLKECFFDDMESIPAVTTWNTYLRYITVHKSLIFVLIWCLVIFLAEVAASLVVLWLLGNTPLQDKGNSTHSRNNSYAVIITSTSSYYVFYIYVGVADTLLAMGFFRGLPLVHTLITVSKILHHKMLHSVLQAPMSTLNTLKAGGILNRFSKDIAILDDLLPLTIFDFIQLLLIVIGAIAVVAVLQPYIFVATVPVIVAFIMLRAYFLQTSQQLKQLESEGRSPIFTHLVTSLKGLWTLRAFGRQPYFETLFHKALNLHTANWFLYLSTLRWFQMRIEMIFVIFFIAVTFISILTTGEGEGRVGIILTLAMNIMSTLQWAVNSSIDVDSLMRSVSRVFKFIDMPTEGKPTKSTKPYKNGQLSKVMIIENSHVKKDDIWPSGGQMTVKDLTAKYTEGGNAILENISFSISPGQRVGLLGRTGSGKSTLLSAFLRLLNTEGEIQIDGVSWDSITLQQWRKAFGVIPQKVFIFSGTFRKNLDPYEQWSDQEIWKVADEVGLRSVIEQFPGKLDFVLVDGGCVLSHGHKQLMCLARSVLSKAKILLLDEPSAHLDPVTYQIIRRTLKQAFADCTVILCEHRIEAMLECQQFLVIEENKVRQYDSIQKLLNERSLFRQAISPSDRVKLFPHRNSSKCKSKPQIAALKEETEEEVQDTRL

In the case of `CCCCCCCCO` [octan-1-ol], the “effect on basal level of 125I efflux in cells not expressing CFTR” value (CHO-CFTR(-) cells) is reported as “do not significantly modify the basal level”, the “activation of the CFTR channel by patch-clamp, in words” value (CFTR channel; octan-1-ol alone 1 mM, without FSK) is reported as “full activation” and the “reversion potential of the induced current” value (CFTR channel; whole-cell, FSK- or octan-1-ol-induced current) is reported as 1±0.6 mV. For the same molecule, the “increase in membrane conductance compared with the control” value (CFTR channel; whole-cell, FSK 1 μM, octan-1-ol 1 mM) was “approximately 10 fold”, the “effect on intracellular cAMP level” value (intracellular cAMP level) was “neither octan-1-ol, hexan-1-ol or ethanol modifies the basal cAMP level” and the “cellular uncoupling shown by ATP-induced calcium response” value (CHO cells) was “clearly uncouples the cells”.
